Laboratory results as given in the supplement of paper PMC11061612.

Experiments:
Test in all cases: combination Emax (second highest fraction inhibited in the dose matrix, 72 h); higher = more inhibition; extreme values may be limits of the assay
[1] = tested on: KYSE-220 (Esophageal Squamous Cell Carcinoma)
Procedure, shortened: (§1)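 After 24 hours at 37°C and 5% CO2 in 1536-well plates, cells in DMEM/F12 or RPMI plus 10% FBS received two-drug dose matrices for 72 hours. Viability came from CellTiter-Glo 2.0 luminescence and was scaled as inhibition, anchored at 0 by vehicle wells and at 1 by blank wells. Combination Emax is taken as the second-highest inhibition in the matrix, and Bliss excess as the observed combination effect less EA + EB − EA·EB, with EA and EB the single-agent effects.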

[2] = tested on: ESO26 (Esophageal Adenocarcinoma)
Procedure, shortened: as §1

[3] = tested on: HCC1395 (Breast Carcinoma)
Procedure, shortened: as §1

[4] = tested on: GCT (Other Solid Carcinomas)
Procedure, shortened: as §1

[5] = tested on: CESS (Acute Myeloid Leukemia)
Procedure, shortened: as §1

[6] = tested on: EW-7 (Ewing's Sarcoma)
Procedure, shortened: as §1

[7] = tested on: AU565 (Breast Carcinoma)
Procedure, shortened: as §1

[8] = tested on: NCI-H1703 (Squamous Cell Lung Carcinoma)
Procedure, shortened: as §1

[9] = tested on: LS-411N (Colorectal Carcinoma)
Procedure, shortened: as §1

[10] = tested on: JIMT-1 (Breast Carcinoma)
Procedure, shortened: as §1

[11] = tested on: UACC-812 (Breast Carcinoma)
Procedure, shortened: as §1

[12] = tested on: JHU-022 (Oral Cavity Carcinoma)
Procedure, shortened: as §1

[13] = tested on: JHH-2 (Hepatocellular Carcinoma)
Procedure, shortened: as §1

[14] = tested on: MDA-MB-436 (Breast Carcinoma)
Procedure, shortened: as §1

[15] = tested on: NCI-H2087 (Lung Adenocarcinoma)
Procedure, shortened: as §1

[16] = tested on: DMS-53 (Small Cell Lung Carcinoma)
Procedure, shortened: as §1

[17] = tested on: KP-N-YN (Neuroblastoma)
Procedure, shortened: as §1

[18] = tested on: NCI-H2228 (Lung Adenocarcinoma)
Procedure, shortened: as §1

[19] = tested on: GA-10 (Burkitt's Lymphoma)
Procedure, shortened: as §1

[20] = tested on: NCI-H716 (Colorectal Carcinoma)
Procedure, shortened: as §1

SMILES | combination Emax [1] | combination Emax [2] | combination Emax [3] | combination Emax [4] | combination Emax [5] | combination Emax [6] | combination Emax [7] | combination Emax [8] | combination Emax [9] | combination Emax [10] | combination Emax [11] | combination Emax [12] | combination Emax [13] | combination Emax [14] | combination Emax [15] | combination Emax [16] | combination Emax [17] | combination Emax [18] | combination Emax [19] | combination Emax [20]
CCc1c2c(nc3ccc(O)cc13)-c1cc3c(c(=O)n1C2)COC(=O)[C@]3(O)CC [SN-38] + O=C(c1cc(Cc2n[nH]c(=O)c3ccccc23)ccc1F)N1CCN(C(=O)C2CC2)CC1 [Olaparib] (first compound max 0.3 µM, 7x7, partner max 10 µM) | 0.99 | 0.764 | 0.518 | 0.753 | 0.989 | 0.908 | 0.891 | 0.882 | 0.304 | 0.267 | 0.504 | 0.764 | 0.618 | 0.546 | 0.909 | 0.735 | 0.491 |  |  | 
C=CCn1c(=O)c2cnc(Nc3ccc(N4CCN(C)CC4)cc3)nc2n1-c1cccc(C(C)(C)O)n1 [AZD1775] + C1CN(CCC1(C(=O)N[C@@H](CCO)C2=CC=C(C=C2)Cl)N)C3=NC=NC4=C3C=CN4 [Capivasertib] (first compound max 3 µM, partner max 3 µM) | 0.85 | 0.707 | 0.777 | 0.623 | 0.874 | 0.896 | 0.833 | 0.911 | 0.878 | 0.76 | 0.466 | 0.71 | 0.625 | 0.41 | 0.501 | 0.619 |  | 0.59 | 0.964 | 0.727
CC(=O)c1c(C)c2cnc(Nc3ccc(N4CCNCC4)cn3)nc2n(C2CCCC2)c1=O [Palbociclib] + CC1(C)CCC(CN2CCN(c3ccc(C(=O)NS(=O)(=O)c4ccc(NCC5CCOCC5)c([N+](=O)[O-])c4)c(Oc4cnc5[nH]ccc5c4)c3)CC2)=C(c2ccc(Cl)cc2)C1 [Venetoclax] (first compound max 10 µM, 7x7, partner max 1 µM) | 0.189 | 0.112 | 0.0711 | 0.313 | 0.651 | 0.409 | 0.262 | 0.486 | 0.153 | 0.107 |  | 0.105 | 0.357 | 0.164 | 0.0514 | 0.327 | 0.42 | 0.238 | 0.95 | 0.475
NC1(C(=O)N[C@@H](CCO)c2ccc(Cl)cc2)CCN(c2ncnc3[nH]ccc23)CC1 [Capivasertib] + C[C@@H]1COCCN1C2=NC(=NC(=C2)C3(CC3)[S@](=N)(=O)C)C4=C5C=CNC5=NC=C4 [AZD6738] (first compound max 10 µM, 7x7, partner max 10 µM) | 0.869 | 0.599 | 0.581 | 0.673 | 0.91 | 1 | 0.684 | 0.928 | 0.751 | 0.612 |  | 0.631 | 0.769 | 0.372 | 0.486 | 0.34 | 0.962 | 0.575 | 1 | 0.555
NC1(C(=O)N[C@@H](CCO)c2ccc(Cl)cc2)CCN(c2ncnc3[nH]ccc23)CC1 [Capivasertib] + CC(=O)c1c(C)c2cnc(Nc3ccc(N4CCNCC4)cn3)nc2n(C2CCCC2)c1=O [Palbociclib] (first compound max 10 µM, 7x7, partner max 10 µM) | 0.712 | 0.498 | 0.395 | 0.718 | 0.708 | 0.657 | 0.505 | 0.609 | 0.628 | 0.246 |  | 0.471 | 0.608 | 0.224 | 0.244 | 0.25 | 0.301 | 0.506 | 0.97 | 0.49
CC(=O)c1c(C)c2cnc(Nc3ccc(N4CCNCC4)cn3)nc2n(C2CCCC2)c1=O [Palbociclib] + Cn1cnc2c(F)c(Nc3ccc(Br)cc3Cl)c(C(=O)NOCCO)cc21 [Selumetinib] (first compound max 10 µM, 7x7, partner max 10 µM) | 0.66 | 0.299 | 0.0651 | 0.405 | 0.658 | 0.669 | 0.277 | 0.584 | 0.715 | 0.0628 |  | 0.54 | 0.463 | 0.224 | 0.501 | 0.212 | 0.318 | 0.335 | 0.941 | 0.539
NC1(C(=O)N[C@@H](CCO)c2ccc(Cl)cc2)CCN(c2ncnc3[nH]ccc23)CC1 [Capivasertib] + COc1nnc2ccc(N3CCC(c4ccc(OCCN5CCN(C)C(=O)[C@H]5C)cc4)CC3)nn12 [AZD5153] (first compound max 10 µM, 7x7, partner max 1 µM) | 0.838 | 0.753 | 0.395 | 0.695 | 0.747 | 0.828 | 0.664 | 0.733 | 0.937 | 0.446 |  | 0.486 | 0.605 | 0.0453 | 0.301 | 0.164 | 0.478 | 0.52 | 0.927 | 0.616
NC1(C(=O)N[C@@H](CCO)c2ccc(Cl)cc2)CCN(c2ncnc3[nH]ccc23)CC1 [Capivasertib] + Cn1cnc2c(F)c(Nc3ccc(Br)cc3Cl)c(C(=O)NOCCO)cc21 [Selumetinib] (first compound max 10 µM, 7x7, partner max 10 µM) | 0.763 | 0.523 | 0.425 | 0.753 | 0.672 | 0.682 | 0.64 | 0.606 | 0.786 | 0.407 |  | 0.576 | 0.674 | 0.388 | 0.539 | 0.301 | 0.391 | 0.58 | 0.77 | 0.783
CN(CCO)CC[C@H](CSc1ccccc1)Nc1ccc(S(=O)(=O)NC(=O)c2ccc(N3CCC([C@@H](O)c4ccccc4-c4ccc(Cl)cc4)CC3)cc2)cc1S(=O)(=O)C(F)(F)F [AZD4320] + CN(C)CCCOc1ccc(-c2ccc3ncc4c(c3c2)n(C2CCOCC2)c(=O)n4C)cn1 [AZD0156] (first compound max 1 µM, 7x7, partner max 1 µM) | 0.14 | 0.153 | 0.202 | 0.239 | 0.333 | 0.68 | 0.253 | 0.367 | 0.199 | 0.171 | 0.175 | 0.102 | 0.194 | 0.133 | 0.321 | 0.965 |  | 0.278 | 0.303 | 0.195
CS(=O)(=O)CCNCc1ccc(-c2ccc3ncnc(Nc4ccc(OCc5cccc(F)c5)c(Cl)c4)c3c2)o1 [Lapatinib] + NC1(c2ccc(-c3nc4ccn5c(=O)[nH]nc5c4cc3-c3ccccc3)cc2)CCC1 [MK-2206] (first compound max 10 µM, 7x7, partner max 10 µM) | 0.981 |  | 0.969 |  |  | 0.965 |  | 0.756 | 0.295 |  |  | 0.663 | 0.9 | 0.461 | 0.293 | 0.544 | 0.922 |  |  | 
C=CCn1c(=O)c2cnc(Nc3ccc(N4CCN(C)CC4)cc3)nc2n1-c1cccc(C(C)(C)O)n1 [AZD1775] + C[C@@H]1COCCN1C2=NC(=NC(=C2)C3(CC3)[S@](=N)(=O)C)C4=C5C=CNC5=NC=C4 [AZD6738] (first compound max 1 µM, partner max 10 µM) | 0.941 | 0.399 | 0.896 | 0.552 | 0.937 | 0.944 | 0.603 | 0.958 | 0.77 | 0.76 | 0.531 | 0.601 | 0.737 | 0.478 | 0.729 | 0.221 |  | 0.653 | 1 | 0.623
Cc1c2c(nn1C)CSCc1cc(n(C)n1)CSc1cc(c3ccccc3c1)OCCCc1c(C(=O)O)n(C)c3c-2c(Cl)ccc13 [AZD5991] + CCN(CCO)CCCOc1ccc2c(Nc3cc(CC(=O)Nc4cccc(F)c4)[nH]n3)ncnc2c1 [AZD2811] (first compound max 1 µM, 7x7, partner max 1 µM) | 0.308 | 0.319 | 0.713 | 0.416 | 0.578 | 0.655 | 1 | 0.874 | 0.178 |  | 0.508 | 0.273 | 0.325 | 0.181 | 0.191 | 0.56 |  | 0.296 | 0.923 | 0.349
CN(C)CCCOc1ccc(-c2ccc3ncc4c(c3c2)n(C2CCOCC2)c(=O)n4C)cn1 [AZD0156] + O=C(c1cc(Cc2n[nH]c(=O)c3ccccc23)ccc1F)N1CCN(C(=O)C2CC2)CC1 [Olaparib] (first compound max 3 µM, partner max 3 µM) | 0.54 | 0.206 | 0.315 | 0.282 | 0.376 | 0.524 | 0.631 | 0.582 | 0.349 | 0.0881 | 0.261 | 0.62 | 0.319 | 0.205 | 0.12 | 0.255 |  | 0.439 | 0.741 | 0.225
